According to PMC12013189, “Phospho-regulated tethering of focal adhesion kinase to vinculin links force transduction to focal adhesion signaling” (Cell Communication and Signaling : CCS, 2025):

Legend:
[1] = tested on: FAT-WT and Vin-T; assay: svAUC peak integration, FAT-WT+LD2/4+Vin-T; assay type: binding, human
Protocol: (§1) For svAUC experiments, FAT and Vin-T proteins at 30 µM were incubated with 10 µM LD2/4 peptide in 20 mM Tris pH 7.5, 200 mM NaCl, 5% Glycerol and 1 mM TCEP. svAUC was performed at 20 °C at 48,000 rpm (Vin-T + LD1 + LD2, Fig. S2) or 58,000 rpm (FAT + LD2/4 + Vin-T; Fig. 3) in a XL-I analytical ultracentrifuge (Beckman-Coulter Inc.) equipped with both UV-VIS absorbance and Raleigh interference detection systems, using an An-50Ti rotor, and Epon-charcoal standard double-sector centerpieces (optical pathlength 12 mm or 4 mm for measurements at 100 µM shown in Fig. S2). Sedimentation profiles were recorded at 280 nm. Differential sedimentation coefficient distributions were calculated by least-squares boundary modelling of sedimentation velocity data using the continuous distribution c(s) Lamm equation model as implemented by SEDFIT [46]. These s values were corrected to standard conditions (water, 20 °C, and infinite dilution) using the program SEDNTERP [32] to get the corresponding standard s values (s20,w).

[2] = tested on: FAT-H23 and Vin-T; assay: svAUC peak integration, FAT-H23+LD2/4+Vin-T; assay type: binding, human; conditions: 30 µM FAT-H23 + 10 µM LD2/4 + 30 µM Vin-T
Protocol: as §1

[3] = target: T1, FAT domain of FAK (hFAK904-1052 WT) (Homo sapiens, UniProt Q05397); assay: Fluorescence anisotropy binding of FITC LD peptides to FAT-WT; conditions: versus single LD motifs
T1 construct: Expression plasmids for FAT (hFAK904-1052 WT and mutants H14, H23 and H14-23); 6xHis (TEV cleavable) (N, cleaved yes); made in house; host or cells: E. coli BL21(DE3)
T1 sequence (Q05397 904-1052): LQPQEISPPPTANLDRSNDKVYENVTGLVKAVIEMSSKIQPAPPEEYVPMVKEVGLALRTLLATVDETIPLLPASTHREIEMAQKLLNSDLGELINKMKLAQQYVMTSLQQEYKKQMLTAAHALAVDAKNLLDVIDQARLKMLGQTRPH
Source text: Expression plasmids for FAT (hFAK904-1052 WT and mutants H14, H23 and H14-23), Vin-FL (hVinculin1-1066) and Vin-T (hVinculin891-1066) were ordered from GenScript in the pET28(+) vector, adding a TEV cleavable N-terminal 6xHis tag to the expressed proteins. Mutant FAT-H14 contains the mutations I936A, H1025A, K1032A; FAT-H23 contains the mutations K955A, R962A, I998A and FAT-14-23 contains the combined mutations I936A, K955A, R962A, I998A, H1025A, K1032A. All plasmids were introduced into E.coli strain BL21(DE3) for expression. Cells were grown in LB media, induced with 1 mM IPTG at an OD (600 nm) of 0.6 and grown over night at 20 °C. Cells were pelleted at 6000 rpm and resuspended in 20 mM Tris pH8, 200 mM NaCl, 5% Glycerol, 10 mM imidazole, 2mM TCEP, 1mM PMSF supplemented with cOmplete protein inhibitor cocktail (Roche). Cells were lysed by sonication and insoluble components removed by centrifugation at 40 K for 1 h at 4 °C. Soluble lysates were cleared through 0.45 μm filters and loaded onto His-Trap affinity columns (Cytiva), washed with step gradients up to 30 mM imidazole and eluted with a gradient up to 500 mM imidazole. Peak-fractions were digested over night with TEV protease (molar ratio ~ 1: 20) at 4 °C. Proteins were diluted to 50 mM NaCl and loaded onto a Source 15Q column, washed with 20 mM Tris pH8, 50 mM NaCl, 5% Glycerol, 1mM TCEP and eluted with a gradient up to 1 M NaCl. Peak fractions were mixed with 1 ml of Ni-NTA beads to remove TEV and uncleaved protein, adding 10 mM imidazole to prevent non-specific binding. The flow-through was concentrated, loaded onto a Superdex200 16/60 column and eluted in 20 mM Tris pH8, 200 mM NaCl, 5% Glycerol, 2mM TCEP. Peak fractions were concentrated, aliquots flash frozen in LN2 and stored at -80 °C.
(§2) Binding curves were determined in a total of 20 µl in black 384 well plates, by titrating protein concentrations (typically up to 50 µM) at a fixed concentration of 25 nM FITC labelled LD peptides (Apeptide Co. Ltd) in 20 mM Tris pH7.5, 150 mM NaCl, 1mM TCEP. Anisotropy measurements were preformed at 22 °C on a Spark® Multimode microplate reader (Tecan) with polarizers, at an excitation wavelength of 485 nm and an emission wavelength of 535 nm (20 nm bandwidth). KD values were extracted by fitting a one-site binding model using the GraphPad Prism software, using the equation: Y = Bmax*X/(KD + X), where Y is the measured anisotropy, X the protein concentration and Bmax the maximal anisotropy value at binding saturation.

[4] = tested on: FAT-H14-23 (I936A, K955A, R962A, I998A, H1025A, K1032A); assay: Fluorescence anisotropy binding to FAT-H14-23 mutant; set-up: species or system human; conditions: both sites mutated
Source text: Expression plasmids for FAT (hFAK904-1052 WT and mutants H14, H23 and H14-23), Vin-FL (hVinculin1-1066) and Vin-T (hVinculin891-1066) were ordered from GenScript in the pET28(+) vector, adding a TEV cleavable N-terminal 6xHis tag to the expressed proteins. Mutant FAT-H14 contains the mutations I936A, H1025A, K1032A; FAT-H23 contains the mutations K955A, R962A, I998A and FAT-14-23 contains the combined mutations I936A, K955A, R962A, I998A, H1025A, K1032A. All plasmids were introduced into E.coli strain BL21(DE3) for expression. Cells were grown in LB media, induced with 1 mM IPTG at an OD (600 nm) of 0.6 and grown over night at 20 °C. […]
as §2

[5] = tested on: FAT-WT; assay: svAUC peak integration, FAT-WT+LD2/4; assay type: binding, human
Protocol: as §1

[6] = tested on: FAT-H23; assay: svAUC peak integration, FAT-H23+LD2/4; assay type: binding, human; conditions: 30 µM FAT-H23 + 10 µM LD2/4
Protocol: as §1

[7] = tested on: FAT-H14; assay: svAUC peak integration, FAT-H14+LD2/4; assay type: binding, human; conditions: 30 µM FAT-H14 + 10 µM LD2/4
Protocol: as §1

[8] = tested on: Vin-T; assay: svAUC peak integration, Vin-T+LD2/4; assay type: binding, human; conditions: 30 µM Vin-T + 10 µM LD2/4
Protocol: as §1

[9] = tested on: GST-Vin-T and His-FAT-H14; assay: GST-pulldown of His-FAT with GST-Vin-T and LD2/4; assay type: binding, human; conditions: 30 µM GST-Vin-T, 10 µM LD2/4, 30 µM His-FAT, western blot anti-His
Protocol: 30 µM GST-Vin-T, 10 µM LD2/4 and 30 µM His-FAT proteins were incubated with glutathione sepharose beads for 1 h, centrifuged for 1 min at […] and washed 3x with 20 mM Tris pH 7.5, 150 mM NaCl, 0.1% Nonidet P40. Proteins co-sedimented with beads were resuspended in SDS Laemmli buffer, heated to 96 °C for 5 min and subjected to SDS-PAGE and western blotting. His-FAT proteins (WT or mutants) were detected using a primary mouse anti-His antibody (Proteintech) and a secondary HRP conjugated goat anti-mouse antibody (Merck).

[10] = tested on: FAT-H14 and Vin-T; assay: svAUC peak integration, FAT-H14+LD2/4+Vin-T; assay type: binding, human; conditions: 30 µM FAT-H14 + 10 µM LD2/4 + 30 µM Vin-T
Protocol: as §1

[11] = 30 µM FAT-WT + 10 µM LD2/4 + 30 µM Vin-T
[12] = 30 µM FAT-WT + 10 µM LD2/4, 20 °C, 280 nm

Sequence: SNLSELDRLLLELNAVQHNGSGSGGSGGSGGSGGSGGSGGSGGSGGSATRELDELMASLSD [LD2/4]
- c(Peak 2) [1-2 s(S)] [1, 11]: 0.68
- c(total) [1, 11]: 1.08
- c(Peak 3) [ >2 s(S)] ([1]; 30 µM FAT-WT + 10 µM LD2/4 + 30 µM Vin-T, ~2.4 S peak): 0.40
- amount (c) of tripartite FAT:LD2/4:Vin-T complex ([1]; difference of 2.4 S peak in presence and absence of Vin-T, FAT-WT): ≈ 0.25
- c(Peak 1) [~ 1 s(S)] [2]: 0.08
- c(Peak 2) [1-2 s(S)] [2]: 0.80
- c(total) [2]: 1.18
- c(Peak 3) [ >2 s(S)] ([2]; ~2.3 S peak): 0.30 and ≈ 0.30
- increase of affinity for FAT by presence of both LD motifs [3]: approximately 15 fold
- binding to FAT-H14-23, in words [4]: no significant binding
- c(total) ([5]; 30 µM FAT-WT + 10 µM LD2/4): 0.58
- c(Peak 1) [~ 1 s(S)] [5, 12]: 0.06
- c(Peak 2) [1-2 s(S)] [5, 12]: 0.37
- c(Peak 3) [ >2 s(S)] ([5]; 30 µM FAT-WT + 10 µM LD2/4, ~2.4 S peak, absence of Vin-T): 0.15
- c(Peak 1) [~ 1 s(S)] [6]: 0.11
- c(Peak 2) [1-2 s(S)] [6]: 0.45
- c(Peak 3) [ >2 s(S)] [6]: 0.03
- c(total) [6]: 0.59
- c(Peak 1) [~ 1 s(S)] [7]: 0.11
- c(Peak 2) [1-2 s(S)] [7]: 0.45
- c(Peak 3) [ >2 s(S)] [7]: 0.05
- c(total) [7]: 0.61
- c(Peak 1) [~ 1 s(S)] [8]: 0.18
- c(Peak 2) [1-2 s(S)] [8]: 0.59
- c(total) [8]: 0.77
- His-FAT-H14 pulled down with GST-Vin-T [9]: only pulled down in the presence of the LD2/4 peptide
- c(Peak 2) [1-2 s(S)] [10]: 0.57
- c(total) [10]: 1.09
- c(Peak 3) [ >2 s(S)] ([10]; 2.4 S peak): 0.52
